{
  "source": "paper PMC10732325",
  "about": "(ACS catalysis, 2023)",
  "key": {"VldE [1]": {"molecular_target": "VldE (Streptomyces hygroscopicus, UniProt Q15JG1, D158N)", "sequence (Q15JG1 whole entry D158N)": "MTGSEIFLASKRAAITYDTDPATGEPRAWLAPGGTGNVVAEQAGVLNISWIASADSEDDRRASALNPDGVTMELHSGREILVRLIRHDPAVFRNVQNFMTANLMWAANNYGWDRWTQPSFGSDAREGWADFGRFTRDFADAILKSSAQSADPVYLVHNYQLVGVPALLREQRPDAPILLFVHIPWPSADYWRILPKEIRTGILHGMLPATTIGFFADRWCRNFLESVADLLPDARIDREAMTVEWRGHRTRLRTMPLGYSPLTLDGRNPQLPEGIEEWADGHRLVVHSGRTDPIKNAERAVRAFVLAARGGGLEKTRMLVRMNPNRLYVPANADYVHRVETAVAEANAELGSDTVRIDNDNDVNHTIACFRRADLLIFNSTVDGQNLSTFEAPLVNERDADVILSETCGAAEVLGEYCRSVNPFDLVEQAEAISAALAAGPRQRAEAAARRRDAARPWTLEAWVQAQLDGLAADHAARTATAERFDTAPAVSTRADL", "assay": "X-ray crystal structure", "format": "binding", "conditions": "apo crystals soaked with 10 mM GDP-glucose, only GDP found; pH 8.5"}, "VldE [2]": {"molecular_target": "VldE (Streptomyces hygroscopicus, UniProt Q15JG1, H182A)", "sequence (Q15JG1 whole entry H182A)": "as the sequence (Q15JG1 whole entry D158N) above, with N158D, H182A counted along it", "assay": "X-ray crystal structure", "format": "binding", "conditions": "apo crystals soaked with 10 mM GDP-glucose, only GDP found; pH 8.0"}},
  "data": [
    {"compound": "Nc1nc2c(ncn2[C@@H]2O[C@H](COP(=O)(O)OP(=O)(O)O)[C@@H](O)[C@H]2O)c(=O)[nH]1", "note": "[GDP]", "values": [
      {"measurement": "X-ray crystal structure", "setting": "VldE [1]", "value": "only the crystal structures of the two variants in complex with GDP were obtained"},
      {"measurement": "X-ray crystal structure", "setting": "VldE [2]", "value": "only the crystal structures of the two variants in complex with GDP were obtained"}
    ]}
  ]
}
